Measured values taken from article PMC6409085, “Three odorant-binding proteins are involved in the behavioral response of Sogatella furcifera to rice plant volatiles” (PeerJ, 2019).
Several values for one entry are separate records, joined by “and”; a condition that tells them apart may be missing. Identical values can stand only once.

What was measured:
[1] = system: S. furcifera adults; experiment: Y-tube olfactometer behavioral trials; type: in vivo, Sogatella furcifera; conditions: odorant 50 µL/L vs hexane
Procedure, shortened: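 Single S. furcifera adults (2 days post-emergence, starved 0.5 h) chose between odorant (100 µL of 50 µL/L on filter paper) and hexane control in a glass Y-tube, charcoal-filtered humidified air 300 mL/min per arm, 25 ± 1 °C, 50% RH. Choice scored if insect passed half an arm and stayed >1 min within 10 min; 45 insects per compound, chi-squared test.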

[2] = target: SfurOBP3 (Sogatella furcifera, UniProt V5T818); experiment: biochemical; type: binding; conditions: for Fluorescence competitive binding assay, fluorescence intensity: OBP3, three replicate columns
Chain of SfurOBP3 (V5T818 entry or part of it): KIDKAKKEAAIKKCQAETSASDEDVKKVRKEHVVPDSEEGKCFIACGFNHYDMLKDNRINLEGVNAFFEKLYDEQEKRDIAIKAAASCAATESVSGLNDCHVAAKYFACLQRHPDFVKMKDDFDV
Procedure, shortened: (§1)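 1-NPN displacement assay with odorant competitor at 2–20 µM; protein and probe both 2.0 µM at pH 7.4. Ki is calculated from IC50 using the protein/1-NPN dissociation constant.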

[3] = target: SfurOBP1 (Sogatella furcifera, UniProt V5T8N5); experiment: biochemical; type: binding; conditions: for Fluorescence competitive binding assay, fluorescence intensity: OBP1, three replicate columns
Chain of SfurOBP1 (V5T8N5 entry or part of it): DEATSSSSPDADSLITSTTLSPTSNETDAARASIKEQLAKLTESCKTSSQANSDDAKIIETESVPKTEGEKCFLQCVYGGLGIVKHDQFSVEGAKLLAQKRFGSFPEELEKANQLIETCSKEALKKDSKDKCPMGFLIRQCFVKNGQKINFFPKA
Procedure, shortened: as §1

[4] = target: SfurOBP2 (Sogatella furcifera, UniProt V5T759); experiment: biochemical; type: binding
Chain of SfurOBP2 (V5T759 entry or part of it): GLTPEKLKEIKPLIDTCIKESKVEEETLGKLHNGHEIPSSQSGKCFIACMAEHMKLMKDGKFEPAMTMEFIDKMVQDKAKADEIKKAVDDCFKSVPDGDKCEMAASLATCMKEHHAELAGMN
Procedure, shortened: as §1

[5] = target: SfurOBP11 (Sogatella furcifera, UniProt V5T6E3); experiment: biochemical; type: binding
Chain of SfurOBP11 (V5T6E3 entry or part of it): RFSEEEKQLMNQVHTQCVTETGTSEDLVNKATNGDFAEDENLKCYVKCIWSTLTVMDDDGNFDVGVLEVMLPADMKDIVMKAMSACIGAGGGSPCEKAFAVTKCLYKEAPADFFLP
Procedure, shortened: as §1

Fluorescence competitive binding assay, fluorescence intensity ([2]; ligand concentration 2): 74152 and 72365 and 72059 | Fluorescence competitive binding assay, fluorescence intensity ([2]; ligand concentration 4): 77402 and 81799 and 77600 | Fluorescence competitive binding assay, fluorescence intensity ([2]; ligand concentration 6): 79862 and 82180 and 72867 | Fluorescence competitive binding assay, fluorescence intensity ([2]; ligand concentration 8): 73959 and 76680 and 68556 | Fluorescence competitive binding assay, fluorescence intensity ([2]; ligand concentration 10): 74938 and 80983 and 75877 | Fluorescence competitive binding assay, fluorescence intensity ([2]; ligand concentration 12): 71318 and 75448 and 71285 | Fluorescence competitive binding assay, fluorescence intensity ([2]; ligand concentration 14): 70629 and 72724 and 74851 | Fluorescence competitive binding assay, fluorescence intensity ([2]; ligand concentration 16): 63137 and 66714 and 63682 | Fluorescence competitive binding assay, fluorescence intensity ([2]; ligand concentration 18): 73714 and 82385 and 76604 | Fluorescence competitive binding assay, fluorescence intensity ([2]; ligand concentration 20): 75970 and 66519 and 62854 | IC50 ([2]; SfurOBP3, protein and 1-NPN both 2.0 µM, competitor 2-20 µM, read-out: IC50): > 20 µM | Fluorescence competitive binding assay, fluorescence intensity ([3]; ligand concentration 2 (μM)): 8889 and 7931 and 9847 | Fluorescence competitive binding assay, fluorescence intensity ([3]; ligand concentration 4 (μM)): 9154 and 8432 and 9875 | Fluorescence competitive binding assay, fluorescence intensity ([3]; ligand concentration 6 (μM)): 7581 and 8720 and 8173 | Fluorescence competitive binding assay, fluorescence intensity ([3]; ligand concentration 8 (μM)): 8276 and 7641 and 8381 | Fluorescence competitive binding assay, fluorescence intensity ([3]; ligand concentration 10 (μM)): 7644 and 8267 and 8233 | Fluorescence competitive binding assay, fluorescence intensity ([3]; ligand concentration 12 (μM)): 8969 and 10263 and 9250 | Fluorescence competitive binding assay, fluorescence intensity ([3]; ligand concentration 14 (μM)): 8392 and 9042 and 10874 | Fluorescence competitive binding assay, fluorescence intensity ([3]; ligand concentration 16 (μM)): 8482 and 9466 and 8778 | Fluorescence competitive binding assay, fluorescence intensity ([3]; ligand concentration 18 (μM)): 11781 and 12671 and 12573 | Fluorescence competitive binding assay, fluorescence intensity ([3]; ligand concentration 20 (μM)): 13259 and 11367 and 9255 | IC50 ([3]; SfurOBP1, protein and 1-NPN both 2.0 µM, competitor 2-20 µM, read-out: IC50): > 20 µM | IC50 ([4]; SfurOBP2, protein and 1-NPN both 2.0 µM, competitor 2-20 µM, read-out: IC50): > 20 µM | Fluorescence competitive binding assay, OBP2 (raw fluorescence reading) ([4]; ligand concentration 2 (unit not given), replicate column 1 of 3): 13775 | Fluorescence competitive binding assay, OBP2 (raw fluorescence reading) ([4]; ligand concentration 2 (unit not given), replicate column 2 of 3): 13769 | Fluorescence competitive binding assay, OBP2 (raw fluorescence reading) ([4]; ligand concentration 2 (unit not given), replicate column 3 of 3): 13734 | Fluorescence competitive binding assay, OBP2 (raw fluorescence reading) ([4]; ligand concentration 4 (unit not given), replicate column 1 of 3): 13631 | Fluorescence competitive binding assay, OBP2 (raw fluorescence reading) ([4]; ligand concentration 4 (unit not given), replicate column 2 of 3): 13783 | Fluorescence competitive binding assay, OBP2 (raw fluorescence reading) ([4]; ligand concentration 4 (unit not given), replicate column 3 of 3): 13500 | Fluorescence competitive binding assay, OBP2 (raw fluorescence reading) ([4]; ligand concentration 6 (unit not given), replicate column 1 of 3): 14480 | Fluorescence competitive binding assay, OBP2 (raw fluorescence reading) ([4]; ligand concentration 6 (unit not given), replicate column 2 of 3): 14028 | Fluorescence competitive binding assay, OBP2 (raw fluorescence reading) ([4]; ligand concentration 6 (unit not given), replicate column 3 of 3): 13866 | Fluorescence competitive binding assay, OBP2 (raw fluorescence reading) ([4]; ligand concentration 8 (unit not given), replicate column 1 of 3): 14049 | Fluorescence competitive binding assay, OBP2 (raw fluorescence reading) ([4]; ligand concentration 8 (unit not given), replicate column 2 of 3): 14101 | Fluorescence competitive binding assay, OBP2 (raw fluorescence reading) ([4]; ligand concentration 8 (unit not given), replicate column 3 of 3): 13901 | Fluorescence competitive binding assay, OBP2 (raw fluorescence reading) ([4]; ligand concentration 10 (unit not given), replicate column 1 of 3): 14583 | Fluorescence competitive binding assay, OBP2 (raw fluorescence reading) ([4]; ligand concentration 10 (unit not given), replicate column 2 of 3): 14099 | Fluorescence competitive binding assay, OBP2 (raw fluorescence reading) ([4]; ligand concentration 10 (unit not given), replicate column 3 of 3): 14077 | Fluorescence competitive binding assay, OBP2 (raw fluorescence reading) ([4]; ligand concentration 12 (unit not given), replicate column 1 of 3): 12819 | Fluorescence competitive binding assay, OBP2 (raw fluorescence reading) ([4]; ligand concentration 12 (unit not given), replicate column 2 of 3): 13447 | Fluorescence competitive binding assay, OBP2 (raw fluorescence reading) ([4]; ligand concentration 12 (unit not given), replicate column 3 of 3): 13211 | Fluorescence competitive binding assay, OBP2 (raw fluorescence reading) ([4]; ligand concentration 14 (unit not given), replicate column 1 of 3): 12583 | Fluorescence competitive binding assay, OBP2 (raw fluorescence reading) ([4]; ligand concentration 14 (unit not given), replicate column 2 of 3): 13279 | Fluorescence competitive binding assay, OBP2 (raw fluorescence reading) ([4]; ligand concentration 14 (unit not given), replicate column 3 of 3): 13266 | Fluorescence competitive binding assay, OBP2 (raw fluorescence reading) ([4]; ligand concentration 16 (unit not given), replicate column 1 of 3): 12291 | Fluorescence competitive binding assay, OBP2 (raw fluorescence reading) ([4]; ligand concentration 16 (unit not given), replicate column 2 of 3): 12273 | Fluorescence competitive binding assay, OBP2 (raw fluorescence reading) ([4]; ligand concentration 16 (unit not given), replicate column 3 of 3): 12414 | Fluorescence competitive binding assay, OBP2 (raw fluorescence reading) ([4]; ligand concentration 18 (unit not given), replicate column 1 of 3): 15293 | Fluorescence competitive binding assay, OBP2 (raw fluorescence reading) ([4]; ligand concentration 18 (unit not given), replicate column 2 of 3): 14599 | Fluorescence competitive binding assay, OBP2 (raw fluorescence reading) ([4]; ligand concentration 18 (unit not given), replicate column 3 of 3): 14178 | Fluorescence competitive binding assay, OBP2 (raw fluorescence reading) ([4]; ligand concentration 20 (unit not given), replicate column 1 of 3): 14271 | Fluorescence competitive binding assay, OBP2 (raw fluorescence reading) ([4]; ligand concentration 20 (unit not given), replicate column 2 of 3): 14231 | Fluorescence competitive binding assay, OBP2 (raw fluorescence reading) ([4]; ligand concentration 20 (unit not given), replicate column 3 of 3): 15281 | IC50 ([5]; SfurOBP11, protein and 1-NPN both 2.0 µM, competitor 2-20 µM, read-out: IC50): > 20 µM | Fluorescence intensity, fluorescence competitive binding assay, OBP11 ([5]; ligand concentration 2, replicate 1): 27436 | Fluorescence intensity, fluorescence competitive binding assay, OBP11 ([5]; ligand concentration 2, replicate 2): 25403 | Fluorescence intensity, fluorescence competitive binding assay, OBP11 ([5]; ligand concentration 2, replicate 3): 32188 | Fluorescence intensity, fluorescence competitive binding assay, OBP11 ([5]; ligand concentration 4, replicate 1): 29413 | Fluorescence intensity, fluorescence competitive binding assay, OBP11 ([5]; ligand concentration 4, replicate 2): 28026 | Fluorescence intensity, fluorescence competitive binding assay, OBP11 ([5]; ligand concentration 4, replicate 3): 33638 | Fluorescence intensity, fluorescence competitive binding assay, OBP11 ([5]; ligand concentration 6, replicate 1): 33021 | Fluorescence intensity, fluorescence competitive binding assay, OBP11 ([5]; ligand concentration 6, replicate 2): 33682 | Fluorescence intensity, fluorescence competitive binding assay, OBP11 ([5]; ligand concentration 6, replicate 3): 34343 | Fluorescence intensity, fluorescence competitive binding assay, OBP11 ([5]; ligand concentration 8, replicate 1): 31948 | Fluorescence intensity, fluorescence competitive binding assay, OBP11 ([5]; ligand concentration 8, replicate 2): 30771 | Fluorescence intensity, fluorescence competitive binding assay, OBP11 ([5]; ligand concentration 8, replicate 3): 33124 | Fluorescence intensity, fluorescence competitive binding assay, OBP11 ([5]; ligand concentration 10, replicate 1): 30756 | Fluorescence intensity, fluorescence competitive binding assay, OBP11 ([5]; ligand concentration 10, replicate 2): 30287 | Fluorescence intensity, fluorescence competitive binding assay, OBP11 ([5]; ligand concentration 10, replicate 3): 30522 | Fluorescence intensity, fluorescence competitive binding assay, OBP11 ([5]; ligand concentration 12, replicate 1): 29262 | Fluorescence intensity, fluorescence competitive binding assay, OBP11 ([5]; ligand concentration 12, replicate 2): 31182 | Fluorescence intensity, fluorescence competitive binding assay, OBP11 ([5]; ligand concentration 12, replicate 3): 32197 | Fluorescence intensity, fluorescence competitive binding assay, OBP11 ([5]; ligand concentration 14, replicate 1): 28697 | Fluorescence intensity, fluorescence competitive binding assay, OBP11 ([5]; ligand concentration 14, replicate 2): 28336 | Fluorescence intensity, fluorescence competitive binding assay, OBP11 ([5]; ligand concentration 14, replicate 3): 31391 | Fluorescence intensity, fluorescence competitive binding assay, OBP11 ([5]; ligand concentration 16, replicate 1): 26235 | Fluorescence intensity, fluorescence competitive binding assay, OBP11 ([5]; ligand concentration 16, replicate 2): 27774 | Fluorescence intensity, fluorescence competitive binding assay, OBP11 ([5]; ligand concentration 16, replicate 3): 27525 | Fluorescence intensity, fluorescence competitive binding assay, OBP11 ([5]; ligand concentration 18, replicate 1): 34849 | Fluorescence intensity, fluorescence competitive binding assay, OBP11 ([5]; ligand concentration 18, replicate 2): 34941 | Fluorescence intensity, fluorescence competitive binding assay, OBP11 ([5]; ligand concentration 18, replicate 3): 33114 | Fluorescence intensity, fluorescence competitive binding assay, OBP11 ([5]; ligand concentration 20, replicate 1): 29304 | Fluorescence intensity, fluorescence competitive binding assay, OBP11 ([5]; ligand concentration 20, replicate 2): 30167 | Fluorescence intensity, fluorescence competitive binding assay, OBP11 ([5]; ligand concentration 20, replicate 3): 28561
SMILES: CCCCCCCCCCC [n-hendecane]
behavioral response of S. furcifera (in words) [1]: strongly attracted | number of insects choosing hexane arm ([1]; adults): 8 | number of insects choosing volatilies arm ([1]; adults): 18 | number of insects failed (no choice) ([1]; adults): 14
